Assay results reported in ChEMBL document CHEMBL1201862, “PubChem BioAssay data set” (2004).
Activity calls are given as the source filed them.

What was measured:
[1] = molecular target: Glucose-6-phosphate 1-dehydrogenase (Homo sapiens, UniProt P11413); experiment: human G6PD enzyme inhibitors, dose response, selectivity assay for P. falciparum G6PD inhibitor project, biochemical, fluorescence (AID 504792); format: functional
Genome polyprotein = Genome polyprotein (dengue virus type 2, UniProt P29990); experiment: Dengue-2 NS5 methyltransferase inhibitors, primary screen, biochemical, confirmation dose response (AID 588689); format: functional
Cytochrome P450 3A4 = Cytochrome P450 3A4 (Homo sapiens, UniProt P08684);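 also: CYP3A4 tested as one member of a cytochrome P450 panel screen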
Cytochrome P450 2C19 = Cytochrome P450 2C19 (Homo sapiens, UniProt P33261); experiment: Cytochrome panel assay with activity outcomes. Panel member name: p450-cyp2c19 Compounds with AC50 equal or less than 10 uM are considered active; format: functional; conditions: read-out: AC50
Cytochrome P450 1A2 = molecular target: T1, Cytochrome P450 1A2 (Homo sapiens, UniProt P05177);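 also: PubChem cytochrome P450 panel assay, CYP1A2 panel member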
T1 sequence (P05177 whole entry): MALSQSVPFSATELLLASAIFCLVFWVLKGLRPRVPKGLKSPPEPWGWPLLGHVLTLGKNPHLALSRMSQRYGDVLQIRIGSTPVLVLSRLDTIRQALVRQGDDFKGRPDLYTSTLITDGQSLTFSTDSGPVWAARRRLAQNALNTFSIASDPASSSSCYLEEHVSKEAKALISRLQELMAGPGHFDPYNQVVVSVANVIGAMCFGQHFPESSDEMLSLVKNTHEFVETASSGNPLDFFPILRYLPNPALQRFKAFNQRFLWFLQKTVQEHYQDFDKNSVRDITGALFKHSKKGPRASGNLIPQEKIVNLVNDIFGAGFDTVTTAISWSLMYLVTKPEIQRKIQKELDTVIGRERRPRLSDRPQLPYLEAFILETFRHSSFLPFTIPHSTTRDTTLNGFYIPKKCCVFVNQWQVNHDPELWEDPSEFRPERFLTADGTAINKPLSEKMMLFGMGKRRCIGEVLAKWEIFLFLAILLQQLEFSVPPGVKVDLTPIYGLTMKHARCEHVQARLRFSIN

Cytochrome P450 2C9 = Cytochrome P450 2C9 (Homo sapiens, UniProt P11712)
Albumin = Albumin (Bos taurus, UniProt P02769); experiment: Counterscreen for inhibitors of T-cell receptor (TCR)-CD3 interaction: Fluorescence-based biochemical high throughput dose response assay to identify inhibitors of T-cell receptor (TCR)-CD3 interaction using a TAMRA-labeled BSA probe.; format: functional
[2] = LGR2 antagonists, dose response, cell-based, HEK293, CRE-luciferase reporter, cherry pick, set 2 (AID 743343); format: functional;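 also: transfected cells were stimulated with diluted bursicon conditioned medium after compound addition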
[3] = HepG2 cell cytotoxicity, dose response, cytotoxicity control, plate reader, cherry-pick, antagonist series (AID 743416); format: functional, cell-based
[4] = MC4R antagonists, dose response, counter-screen for LGR2 antagonist project, cell-based, plate reader, cherry pick (AID 743444); format: functional;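 also: transfected HEK 293 cells stimulated with alpha-MSH peptide; potency of inhibitors of the alpha-MSH evoked signal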
[5] = A549 cell cytotoxicity, dose response, cytotoxicity control, plate reader, cherry-pick, antagonist series (AID 743412); format: functional, cell-based
Vero = experiment: cells; format: functional; conditions: Chlorocebus sabaeus
Cytochrome P450 2D6 = Cytochrome P450 2D6 (Homo sapiens, UniProt P10635);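 also: CYP2D6 member of a cytochrome P450 panel assay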
[6] = molecular target: Dual specificity tyrosine-phosphorylation-regulated kinase 1A (Rattus norvegicus, UniProt Q63470); format: biochemical, Homo sapiens
[7] = Luminescence Cell-Based Dose Confirmation HTS to Identify Inhibitors of Platelet Dense Granule Release. [Related pubchem assays: 1663 (Primary HTS), 1678 (Summary of Project)]; format: functional
[8] = molecular target: Luciferin 4-monooxygenase (Photinus pyralis, UniProt P08659); experiment: firefly luciferase enzyme inhibitors, dose response, biochemical, luminescence (AID 1891)
Fatty acid synthase = Fatty acid synthase (Homo sapiens, UniProt P49327); experiment: FAS thioesterase domain inhibitors, dose response, biochemical, kinetic fluorescence intensity (AID 624326); format: functional;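 also: rate of fluorescence rise from hydrolysis of a fluorogenic O-methyl fluorescein ester substrate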
[9] = molecular target: FAD-linked sulfhydryl oxidase ALR (Homo sapiens, UniProt P55789); experiment: inhibitors of human ALR sulfhydryl oxidase, dose response, biochemical, H2O2 detection, luminescence, cherry-pick (AID 493248)
[10] = microbe, parasite or virus in culture; format: functional; conditions: Mycobacterium tuberculosis
[11] = tested on: Streptococcus sp. 'group A'; experiment: growth inhibition of control SK(-) GAS strain, dose response, counter-screen for streptokinase expression inhibitor project, luminescence, kanamycin, BacTiterGlo, confirmation (AID 1900); format: functional, organism-based
Streptokinase A = molecular target: T2, Streptokinase A (Streptococcus pyogenes serotype M1, UniProt P10520); experiment: S. pyogenes streptokinase expression inhibitors, potency, dose response, plasminogen activation absorbance, OD405 (AID 1914); format: functional, Streptococcus pyogenes M1 GAS;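 also: secreted streptokinase activity via plasminogen activation per viability signal from cell pellet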
T2 sequence (P10520 whole entry): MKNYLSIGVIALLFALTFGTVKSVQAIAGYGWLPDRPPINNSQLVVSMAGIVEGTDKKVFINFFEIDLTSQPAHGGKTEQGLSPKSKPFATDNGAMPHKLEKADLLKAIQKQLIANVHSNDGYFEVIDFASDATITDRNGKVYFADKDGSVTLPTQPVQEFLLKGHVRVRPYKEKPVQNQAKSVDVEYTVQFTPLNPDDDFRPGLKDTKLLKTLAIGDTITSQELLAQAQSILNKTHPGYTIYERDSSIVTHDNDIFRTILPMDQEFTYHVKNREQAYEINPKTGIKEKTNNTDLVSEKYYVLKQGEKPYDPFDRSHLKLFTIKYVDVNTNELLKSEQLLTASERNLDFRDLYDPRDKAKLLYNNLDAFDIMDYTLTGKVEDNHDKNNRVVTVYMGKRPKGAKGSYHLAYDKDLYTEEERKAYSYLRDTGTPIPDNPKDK

Streptococcus = experiment: Group A Streptococcus viability loss, dose response, counter-screen for streptokinase expression inhibitor project, luminescence, BacTiterGlo (AID 1915); format: functional, organism-based;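 also: potency for reduction of bacterial viability or growth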
[12] = molecular target: T3, Mannose-6-phosphate isomerase (Homo sapiens, UniProt P34949); experiment: human PMI inhibitors, high substrate, primary screen, biochemical, fluorescence intensity, high mannose 6-phosphate (AID 1220)
T3 sequence (P34949 whole entry): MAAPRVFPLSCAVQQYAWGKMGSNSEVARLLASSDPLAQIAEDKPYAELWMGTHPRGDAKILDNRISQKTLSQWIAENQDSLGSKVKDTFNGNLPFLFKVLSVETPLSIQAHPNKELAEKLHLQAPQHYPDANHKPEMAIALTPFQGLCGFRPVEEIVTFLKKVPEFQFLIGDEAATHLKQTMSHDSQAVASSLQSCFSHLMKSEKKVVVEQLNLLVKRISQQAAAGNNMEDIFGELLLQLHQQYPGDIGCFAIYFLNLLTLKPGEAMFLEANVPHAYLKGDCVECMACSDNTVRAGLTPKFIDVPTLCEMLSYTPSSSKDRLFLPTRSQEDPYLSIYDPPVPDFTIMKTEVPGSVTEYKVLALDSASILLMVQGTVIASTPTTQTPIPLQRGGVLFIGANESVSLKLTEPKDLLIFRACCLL

H4 = experiment: Luminescence Cell-Based Dose Response HTS to Identify Activators of 5'UTR Stem-Loop Driven Prion Protein mRNA Translation in H4 Neuroglioblastoma Cells. [Related pubchem assays: 1829 (Project Summary), 1814 (Primary HTS)]; format: functional; conditions: Homo sapiens
[13] = Luminescence Cell-Based Dose Response HTS to Identify Activators of Luciferase Translation or Activity in H4 […] Cells. [Related pubchem assays: 1829 (Project Summary), 1814 (Primary HTS)]; format: functional
[14] = Luminescence Cell-Based Dose Confirmation HTS to Identify Activators of 5'UTR Stem-Loop Driven Alpha-Synuclein mRNA Translation in H4 Neuroglioblastoma Cells. [Related pubchem assays: 1829 (Project Summary), 1814 (Primary HTS)]; format: functional
[15] = molecular target: Disintegrin and metalloproteinase domain-containing protein 17 (Homo sapiens, UniProt P78536); experiment: exosite inhibitors of ADAM17, dose response, biochemical (AID 743260)
Chain of Disintegrin and metalloproteinase domain-containing protein 17 (P78536 whole entry, the tested form may be a part): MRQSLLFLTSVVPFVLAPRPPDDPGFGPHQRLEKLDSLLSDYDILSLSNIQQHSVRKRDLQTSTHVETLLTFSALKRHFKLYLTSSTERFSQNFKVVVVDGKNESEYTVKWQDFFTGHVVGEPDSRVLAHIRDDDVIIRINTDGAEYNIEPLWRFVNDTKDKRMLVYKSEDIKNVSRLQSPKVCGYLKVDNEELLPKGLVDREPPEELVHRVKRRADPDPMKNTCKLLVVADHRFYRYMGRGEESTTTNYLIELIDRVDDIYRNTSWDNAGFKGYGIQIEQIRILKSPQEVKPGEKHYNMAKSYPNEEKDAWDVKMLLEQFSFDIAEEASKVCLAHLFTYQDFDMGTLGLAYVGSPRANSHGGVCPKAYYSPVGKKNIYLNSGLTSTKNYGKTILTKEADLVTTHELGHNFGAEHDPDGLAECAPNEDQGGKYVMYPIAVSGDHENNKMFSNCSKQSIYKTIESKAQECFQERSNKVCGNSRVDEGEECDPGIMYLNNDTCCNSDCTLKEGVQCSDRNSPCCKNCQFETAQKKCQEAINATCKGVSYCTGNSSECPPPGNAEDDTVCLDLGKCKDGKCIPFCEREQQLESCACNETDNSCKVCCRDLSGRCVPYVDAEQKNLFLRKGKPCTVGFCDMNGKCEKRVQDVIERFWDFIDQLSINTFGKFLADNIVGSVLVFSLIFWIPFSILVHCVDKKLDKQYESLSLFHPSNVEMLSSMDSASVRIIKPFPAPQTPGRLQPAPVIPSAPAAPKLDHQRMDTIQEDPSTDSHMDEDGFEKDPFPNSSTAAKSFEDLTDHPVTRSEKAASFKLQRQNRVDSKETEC

Chain of Albumin (P02769 whole entry): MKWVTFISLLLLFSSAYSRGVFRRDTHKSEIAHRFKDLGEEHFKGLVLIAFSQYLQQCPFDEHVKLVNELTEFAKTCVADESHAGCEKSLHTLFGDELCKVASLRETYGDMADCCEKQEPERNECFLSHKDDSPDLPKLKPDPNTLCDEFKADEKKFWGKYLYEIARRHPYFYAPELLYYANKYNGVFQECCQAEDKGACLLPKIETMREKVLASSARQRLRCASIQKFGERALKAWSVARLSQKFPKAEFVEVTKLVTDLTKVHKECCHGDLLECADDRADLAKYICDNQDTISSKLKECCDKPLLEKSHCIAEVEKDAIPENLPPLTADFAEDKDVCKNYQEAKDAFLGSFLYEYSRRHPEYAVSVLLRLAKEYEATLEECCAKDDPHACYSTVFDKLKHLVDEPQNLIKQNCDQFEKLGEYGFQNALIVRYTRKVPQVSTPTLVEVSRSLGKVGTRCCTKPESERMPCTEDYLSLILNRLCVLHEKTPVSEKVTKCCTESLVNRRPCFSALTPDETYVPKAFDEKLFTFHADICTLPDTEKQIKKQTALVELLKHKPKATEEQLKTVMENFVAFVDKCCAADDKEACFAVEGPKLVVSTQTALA
Chain of Glucose-6-phosphate 1-dehydrogenase (P11413 whole entry): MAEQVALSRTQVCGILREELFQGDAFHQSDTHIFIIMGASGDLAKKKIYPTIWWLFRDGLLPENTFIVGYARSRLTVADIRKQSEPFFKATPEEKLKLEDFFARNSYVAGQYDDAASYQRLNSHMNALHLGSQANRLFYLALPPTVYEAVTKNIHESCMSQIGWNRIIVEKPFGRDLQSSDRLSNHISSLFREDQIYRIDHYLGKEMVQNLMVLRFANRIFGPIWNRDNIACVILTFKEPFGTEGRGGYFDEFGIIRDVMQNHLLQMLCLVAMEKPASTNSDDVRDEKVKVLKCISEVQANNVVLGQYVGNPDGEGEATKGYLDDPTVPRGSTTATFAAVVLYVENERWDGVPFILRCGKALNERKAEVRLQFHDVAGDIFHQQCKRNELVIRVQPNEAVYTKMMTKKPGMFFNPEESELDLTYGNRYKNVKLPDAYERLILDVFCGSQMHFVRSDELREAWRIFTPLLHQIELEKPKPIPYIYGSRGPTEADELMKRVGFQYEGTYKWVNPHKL
Chain of Cytochrome P450 2C9 (P11712 whole entry): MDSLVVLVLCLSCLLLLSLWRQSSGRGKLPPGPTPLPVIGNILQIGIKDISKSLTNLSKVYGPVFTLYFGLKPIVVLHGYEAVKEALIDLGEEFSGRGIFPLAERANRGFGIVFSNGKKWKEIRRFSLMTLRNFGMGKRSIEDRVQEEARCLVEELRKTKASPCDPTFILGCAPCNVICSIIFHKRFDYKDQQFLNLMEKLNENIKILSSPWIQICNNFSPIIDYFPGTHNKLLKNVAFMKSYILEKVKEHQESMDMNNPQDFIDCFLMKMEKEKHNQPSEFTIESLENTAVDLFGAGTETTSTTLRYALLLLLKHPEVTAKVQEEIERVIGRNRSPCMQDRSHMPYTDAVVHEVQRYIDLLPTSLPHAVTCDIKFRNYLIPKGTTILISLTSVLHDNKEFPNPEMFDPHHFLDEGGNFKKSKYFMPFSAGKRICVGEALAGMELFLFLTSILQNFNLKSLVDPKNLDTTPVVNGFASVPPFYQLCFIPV
Chain of Cytochrome P450 3A4 (P08684 whole entry): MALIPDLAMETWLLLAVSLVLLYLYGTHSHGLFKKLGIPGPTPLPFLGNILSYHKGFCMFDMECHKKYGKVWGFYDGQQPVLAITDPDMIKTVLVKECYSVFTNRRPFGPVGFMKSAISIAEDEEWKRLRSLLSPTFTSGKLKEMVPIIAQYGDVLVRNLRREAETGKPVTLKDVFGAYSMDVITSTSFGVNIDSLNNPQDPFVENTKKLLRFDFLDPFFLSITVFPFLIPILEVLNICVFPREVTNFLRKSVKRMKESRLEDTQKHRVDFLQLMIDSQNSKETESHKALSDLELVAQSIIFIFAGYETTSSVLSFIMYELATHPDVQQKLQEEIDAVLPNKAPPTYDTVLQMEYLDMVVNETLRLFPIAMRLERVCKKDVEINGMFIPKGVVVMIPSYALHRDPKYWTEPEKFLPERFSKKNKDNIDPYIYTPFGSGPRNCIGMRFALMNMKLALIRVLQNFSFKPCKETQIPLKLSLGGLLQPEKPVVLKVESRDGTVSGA
Chain of Cytochrome P450 2C19 (P33261 whole entry): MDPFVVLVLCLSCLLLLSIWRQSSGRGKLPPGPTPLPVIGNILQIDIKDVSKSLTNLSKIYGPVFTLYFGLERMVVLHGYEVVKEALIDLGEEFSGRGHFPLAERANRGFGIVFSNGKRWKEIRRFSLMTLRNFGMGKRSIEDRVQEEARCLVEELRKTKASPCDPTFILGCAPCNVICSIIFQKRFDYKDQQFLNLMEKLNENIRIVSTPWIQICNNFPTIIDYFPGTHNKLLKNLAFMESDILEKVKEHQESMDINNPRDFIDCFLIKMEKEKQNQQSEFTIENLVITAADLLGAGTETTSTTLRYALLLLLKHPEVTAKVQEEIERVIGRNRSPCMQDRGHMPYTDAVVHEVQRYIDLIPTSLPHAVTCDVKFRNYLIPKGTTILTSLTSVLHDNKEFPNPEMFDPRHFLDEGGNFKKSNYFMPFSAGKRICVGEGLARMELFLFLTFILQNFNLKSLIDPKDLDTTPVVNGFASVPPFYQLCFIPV
Chain of Genome polyprotein (P29990 2492-3391 limits assumed): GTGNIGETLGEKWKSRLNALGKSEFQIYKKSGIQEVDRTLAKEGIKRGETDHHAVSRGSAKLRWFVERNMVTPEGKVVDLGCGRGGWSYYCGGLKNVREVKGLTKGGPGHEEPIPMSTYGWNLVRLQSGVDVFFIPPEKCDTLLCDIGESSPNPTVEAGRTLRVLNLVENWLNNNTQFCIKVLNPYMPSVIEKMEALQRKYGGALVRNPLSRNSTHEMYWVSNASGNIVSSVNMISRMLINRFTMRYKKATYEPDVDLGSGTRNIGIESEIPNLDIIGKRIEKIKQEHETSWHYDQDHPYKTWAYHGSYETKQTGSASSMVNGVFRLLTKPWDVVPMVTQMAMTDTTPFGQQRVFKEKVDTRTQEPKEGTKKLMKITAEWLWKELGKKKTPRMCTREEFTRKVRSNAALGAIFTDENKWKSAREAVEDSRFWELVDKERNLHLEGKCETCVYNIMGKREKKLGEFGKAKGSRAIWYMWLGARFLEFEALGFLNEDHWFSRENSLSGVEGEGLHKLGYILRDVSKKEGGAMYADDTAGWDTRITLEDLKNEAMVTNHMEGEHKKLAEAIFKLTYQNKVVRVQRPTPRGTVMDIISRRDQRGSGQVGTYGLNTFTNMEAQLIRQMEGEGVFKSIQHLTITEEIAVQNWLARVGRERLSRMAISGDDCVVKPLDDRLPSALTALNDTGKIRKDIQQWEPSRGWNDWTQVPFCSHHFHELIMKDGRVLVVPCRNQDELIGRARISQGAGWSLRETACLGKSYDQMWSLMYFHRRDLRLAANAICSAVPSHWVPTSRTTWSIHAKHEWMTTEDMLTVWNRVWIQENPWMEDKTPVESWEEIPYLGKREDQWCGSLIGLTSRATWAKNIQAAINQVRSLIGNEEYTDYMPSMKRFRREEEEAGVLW
Chain of FAD-linked sulfhydryl oxidase ALR (P55789 whole entry): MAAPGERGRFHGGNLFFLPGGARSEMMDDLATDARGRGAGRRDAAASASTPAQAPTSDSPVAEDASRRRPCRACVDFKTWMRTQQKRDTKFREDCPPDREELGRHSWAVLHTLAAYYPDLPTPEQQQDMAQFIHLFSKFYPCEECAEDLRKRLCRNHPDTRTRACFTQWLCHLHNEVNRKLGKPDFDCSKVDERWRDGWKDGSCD

CN1CC[C@@]2(C)c3cc(O)ccc3N(C)[C@@H]12
IC50 [1]: 42.6 µM (inactive) | IC50 (Genome polyprotein): 22.4 µM (active)

CN1CCN(c2ncc3nc(-c4ccc(F)cc4)c(=O)n(Cc4cccs4)c3n2)CC1
AC50 (Cytochrome P450 3A4): inconclusive | AC50 (Cytochrome P450 2C19): 31.6 µM (inconclusive) | AC50 (Cytochrome P450 1A2): 25.1 µM (inconclusive) | AC50 (Cytochrome P450 2C9): 0.0126 µM (inconclusive)

O=C(CCl)NNC(=O)c1c(O)c2ccccc2[nH]c1=O
IC50 (Albumin): > 94 µM (inactive)

COc1ccc2nc(NC(=O)c3ccccc3F)sc2c1
AC50 [2]: 19.9 µM (active) | AC50 [3]: > 52 µM (inactive) | AC50 [4]: 27.2 µM (active) | AC50 [5]: > 52 µM (inactive)

CC1(OC(=O)C2CCCC2)C(=O)C=C2C=C(c3ccsc3)N(CCc3c[nH]c4ccccc34)C=C2C1=O (centres undefined)
IC50 [1]: 49.6 µM (inactive)

Cc1noc(C)c1COc1ccc(C(=O)NNC(=O)c2ccccc2O)cc1
IC50 (Albumin): > 94.1 µM (inactive)

O=C1N(c2ccccc2C(F)(F)F)O[C@@]1(c1ccccc1)C1CCCCC1
CC50 (Vero): > 25 µM (active)

NNC(=O)CN1C(c2ccccc2Br)=Nc2ccc(Br)cc2C1c1ccccc1 (centres undefined)
IC50 [1]: 15.3 µM (active)

CCCCn1c(SCC(=O)NC(C)(C)C)nnc1-c1ccco1
AC50 (Cytochrome P450 3A4): inconclusive | AC50 (Cytochrome P450 1A2): 0.316 µM (inconclusive) | AC50 (Cytochrome P450 2D6): 12.6 µM (inconclusive) | AC50 (Cytochrome P450 2C9): 0.0398 µM (inconclusive)

O=C(c1ccccc1)c1ccc2cc(O)ccc2c1
AC50 [6]: 9.25 µM (active) | EC50 [7]: 7.74 µM (active) | EC50 [8]: 0.752 µM (active)

O=S(=O)(c1ccc(-c2csc(-c3cccnc3)n2)cc1)N1CCCC1
IC50 (Fatty acid synthase): 1.62 µM (active) | AC50 [9]: 0.268 µM (active)

COc1cccc(NC(=O)Nc2nc(SC(C)(C)C)ns2)c1
CC50 [10]: 7.82 µM (active) | EC50 [11]: 9.49 µM (active) | EC50 (Streptokinase A): 9.69 µM (active) | CC50 (Vero): 7.41 µM (active) | EC50 (Streptococcus): > 50 µM (not active)

CCN(CC)c1ccc(NC(=O)c2ccccc2Br)cc1S(=O)(=O)Nc1ccccc1OC
IC50 [1]: > 80 µM (inactive) | IC50 [12]: 43.7 µM (active)

Fc1cccc(/C=N/Nc2[nH]cnc3ncnc2-3)c1
AC50 [6]: 10.1 µM (active) | EC50 (H4): > 120 µM (not active) | EC50 [13]: 40.8 µM (active) | EC50 [14]: > 120 µM (not active)

C/C(=N\N=C(/N)SC1CC(=O)N(c2ccc(Br)cc2)C1=O)c1cccs1 (centres undefined)
EC50 [11]: 6.72 µM (active) | EC50 (Streptokinase A): 9.08 µM (active) | IC50 [15]: > 69.5 µM (inactive) | EC50 (Streptococcus): 19.1 µM (active)

COc1ccc(CC(=O)N/N=C/c2cc([N+](=O)[O-])cc(Br)c2O)cc1
EC50 [11]: 3.53 µM (active) | EC50 (Streptokinase A): > 150 µM (not active) | IC50 (Albumin): > 94.1 µM (inactive) | EC50 (Streptococcus): 6.89 µM (active)

Cc1no[n+]([O-])c1COc1cccc(/C=N/Nc2nncn2N)c1
IC50 [1]: 58.7 µM (inactive)
